From US9555086B2, “Compositions and methods for inducing an immune response” (The Regents of the University of Michigan, priority 2010, dated 2017)
Entries after “also recorded” stand apart in the source; their conditions may differ. Numbered stars: 1 amine (or outer) side, 2 acyl side, 3 side chain; on linkers, the order of the positions; unused ones are H or OH. Bridge positions count the residues as written; N and C are the ends. Square brackets hold non-standard residues; d marks the D form. Ends that are not written are not given here. Peptide text beside a SMILES is read from it. CO = O=C([*:1])[*:2]; Nlys = NCCCCNCC(=O)O

Columns and labels:
trypsin and chymotrypsin [1] = conditions: pH 8
CD8+ and CD8− DC = assay: Cytokine production by splenic DC subsets (Luminex); assay type: cell-based, mouse; conditions: CD11c+CD8− DCs; 50 μg/ml peptide
Protocol: Splenic CD8+ and CD8− DC were isolated from DBA/1 mice as above and cultured in 96-well plates over time in the presence or absence of ISL-positive (65-79*0401) or ISL-negative (65-79*0402) peptides (50 μg/ml). At various time points thereafter, supernatants were collected and assayed for cytokine content, using the Luminex platform.
DBA/1 splenic unfractionated CD11c+ DCs (CD11c+), or their purified CD11c+CD8+ DCs (CD8+) or CD11c+CD8− DCs (CD8−) subsets were cultured with the ISL 65-79*0401 or ISL-negative control 65-79*0402 or medium. Supernatants were collected at different time points and assayed for cytokine content using a Luminex platform.
To determine the rate of NO production, cells were loaded with 20 μM of the fluorescent NO probe 4,5-diaminofluorescein diacetate (DAF-2DA) and the fluorescence level was recorded every 5 minutes over a period of 500 minutes using a Fusion αHT system (PerkinElmer Life Sciences) at an excitation wavelength of 488 nm and emission wavelength of 515 nm. To determine IDO enzymatic activity, the generation of its product, kynurenine was measured (Takikawa et al. 1988. J Biol Chem 263:2041-2048.; herein incorporated by reference in its entirety). Cytokine concentrations were measured in cell culture supernatants using a Luminex platform (Millipore Corporation, Danvers, Mass.). In some experiments, cytokines were determined using ELISA (Quantikine®, R&D Systems, Minneapolis, Minn.) following the manufacture's instruction.

Th17 cells = assay: ISL polarizing effect in vivo (CII in CFA immunization); parameters: species or system DBA/1 mice; conditions: 10 μg co-administered with CII in CFA, footpad; day 7
Protocol: (A) DBA/1 mice were immunized with CII in CFA in the presence of PBS, 65-79*0401 or 65-79*0402. On day 7, cells from draining lymph nodes were isolated, cultured for 6 hours with PMA, Ionomycin and Brefeldin A and then stained with anti-mouse CD4, IL17A and IFN-γ as above. On the left: Representative dot plots showing percentages of IL17A+ and IFN-γ+ cells obtained from gated CD4+ cells. On the right, bar graphs showing results as mean±SD of duplicate experiments. (B) DBA/1 and CII-TCR Tg mice were immunized as in (A). On day 7, splenic cells were isolated and cultured with the synthetic peptide CII260-267 (5 μg/ml). Supernatants were collected every 24 hours and assayed for IL-17 levels by ELISA.
Mice were injected subcutaneously in the footpad with 100 μg of chicken collagen type II (CII) (Chondrex, Inc, Redmond, Wash.) emulsified in CFA (4 mg/ml). The inoculums contained 10 μg of either ISL-positive 65-79*0401 or ISL-negative 65-79*0402 ligands in PBS, or an equal volume of PBS alone. Animals were sacrificed 7 days after immunization. For Th17 quantification studies, inguinal and popliteal lymph nodes were collected and single cell suspensions were prepared. Unfractionated lymph node cells were cultured with PMA, Ionomycin and Brefeldin A for 6 hours as above. Cells were stained with FITC anti-mouse CD4 or isotype controls, followed by fixation and permeabilization using a Cytofix-Cytoperm™ kit. After permeabilization, intracellular staining was performed using PE-conjugated anti-mouse IL17A and APC-conjugated anti-mouse IFN-γ and cells were analyzed by flow cytometry as above. To measure IL-17 production, splenocytes from mice immunized as above were stimulated in vitro with 5 μg of CII259-273 peptide. At different time points thereafter, supernatants were collected and assayed for IL-17 by ELISA as above.

trypsin and chymotrypsin [2] = assay: Trypsin/chymotrypsin stability assay
[3] = tested on: Human fibroblast M1 cells; assay: Nitric Oxide Assay in human fibroblast M1 cells; assay type: cell-based
Protocol: FIGS. 17A and 17B show dose-response experiments of NO production rate induced by cyclic analogs. Human M1 fibroblasts were incubated with different concentrations of the listed cyclic peptides, or with 50 μM of positive (65-79*0401) or negative (65−79*0402) control peptides. NO production rates were determined using the fluorescent probe 4,5-diaminofluorescein diacetate (DAF-2DA) (See Ling et al., Arthritis Res Ther 2007, 9, R5; Ling et al., J. J Immunol 2007, 179, 6359; Ling et al., Arthritis Rheum 2006, 54, 3423).
Nitric Oxide Assay. Human fibroblast M1 cells were plated at a density of 1×10^5 cells per well in 96-well plates the day prior to the Nitric Oxide assay. To determine the rate of NO production in fibroblast, cells were first loaded with 20 μM of the fluorescent NO probe 4,5-diaminofluorescein diacetate (DAF-2DA), incubated in the dark at 37° C. for 1 hour and washed in 100 μL of DMEM/phenol red-free medium. The fluorescence level was recorded every 5 minutes over a period of 500 minutes, using a Fusion αHT system (PerkinElmer Life Sciences) at an excitation wavelength of 488 nm and emission wavelength of 515 nm. The NO production rate is expressed as the mean±SEM fluorescence units per minute.

[4] = tested on: antioxidative signaling pathway; conditions: read-out: IC50 as activator of antioxidative signaling pathway; cited from earlier work

For H-KDLLEQRRAAVDTYC-NH2 [65-79*0404], the “degradation by trypsin/chymotrypsin (HPLC)” value (trypsin and chymotrypsin [1]) was “degraded completely”.
In the case of “H-Lys-Asp-Ile-Leu-Glu-Asp-Glu-Arg-Ala-Ala-Val-Asp-Thr-Tyr-Cys-NH2 (H-KDILEDERAAVDTYC-NH2) [65-79*0402, reference compound]”, the IL-6 production (CD8+ and CD8− DC) is reported as “did not trigger any increased production; also recorded: did not trigger any cytokine production” and the “Th17 abundance in draining lymph nodes” value (Th17 cells) is reported as “no effect”.
In the case of C[C@H](NC(=O)CN1CCCCNC(=O)NCCCCN(C(=O)[C@@H](N)Cc2c[nH]c3ccccc23)CC(=O)N[C@@H](CCC(N)=O)C(=O)N[C@@H](CCCCN)C(=O)N[C@@H](CCCNC(=N)N)C1=O)C(N)=O [c(HS4-4)] (H-W[Nlys]QKR[Nlys]A-NH2; linker 2-6 via CO), the “stability towards trypsin/chymotrypsin degradation (HPLC)” value (trypsin and chymotrypsin [2]; 4 hours of incubation, 37° C., pH 8) is reported as “completely stable” and the “cleavage fragments in MS analysis” value (trypsin and chymotrypsin [2]; after trypsin/chymotrypsin incubation) is reported as “no fragments were observed”.
For “c(HS6-2): cyclic analog named only in b214; probably a misprint of c(HS2-4) (QRRAA; bridge (positions not given here) via CO; also: urea backbone cyclisation, places not given here)”, the “potency in activating NO production (in words)” value [3] was “potent analogs”.
In the case of C=C(C)CCOP(=O)(O)OP(=O)(O)O [IPP, Isopentenyl diphosphate], the IC50 [4] is listed as 0.017 nM.
